Reference: patent EP4600367A1, “ENZYMATIC CLEAVAGE OF N-ALKYL COMPOUNDS AFTER CHEMOLYSIS OF POLYURETHANES” (Covestro Deutschland AG, priority 2024, dated 2025)

What was measured:
[1] = tested on: UPO #13M5; test: Enzymatic N-dealkylation assay UPOs with H2O2, HPLC; assay type: biochemical; settings: for enzymatischer Abbau von Modell-N-Alkylverbindungen: UPO #13M5: 4 mM substrate, Tricine buffer 100 mM, 30 °C, at least 4 h, H2O2 added every 30 min
Protocol: (§1) Die vier Enzyme UPO #13, UPO #13M1, UPO #13M3 und UPO #13M5 wurden von Aminoverse B.V. bereitgestellt. Zusätzlich wurde das Wildtyp AaeUPO aus der Basidiomycete Agrocybe aegerita (Ullrich, R., et al. (2004). "Novel haloperoxidase from the agaric basidiomycete Agrocybe aegerita oxidizes aryl alcohols and aldehydes." Appl Environ Microbiol 70(8): 4575-4581) von Aminoverse B.V. erworben.
(§2) Für UPOs erfolgte die Reaktion im 300 µL Maßstab in Tricine Puffer (100 mM) bei 30 °C für mindestens 4 h und 200 rpm. Dazu wurden die von Aminoverse B.V. bereitgestellten Enzympräparate in dH2O gelöst (ca. 0,575 mg/mL) und 30 µL der Enzymlösung in den Assay eingesetzt, welcher mit 4 mM eines der sechs in Tabelle 2 gelisteten Substrate versetzt war. Der Assay wurde mit Zugabe des Co-Substrats H2O2 (1,5 µL einer 200 mM H2O2-Lösung) gestartet, welches alle 30 min wiederholt zugegeben wurde (final 12 µL H2O2).
(§3) Als Negativkontrollen wurden für alle Substrate und Bedingungen Assays ohne Enzymlösung durchgeführt. Alle Assays erfolgten mindestens in Triplikaten.
(§4) Zum Abstoppen der enzymatischen Reaktion und Extraktion erfolgte die Verdünnung des Reaktionsansatzes in gleichen Teilen Acetonitril. Die Proben wurden filtriert und die Produktfreisetzung per HPLC analysiert (ZORBAX Eclipse C18 Säule (Partikelgröße von […], 4,6 × 75 mm (Agilent Technologies, Santa Clara, USA), 40 °C, Laufmittel A: Acetonitril mit 5 % Reinstwasser, Laufmittel B: 10 mM Natriumphosphat-Puffer pH 7,0 mit 5 % ACN, Fluss: 1 mL/min). Das Profil der HPLC-Methode ist in Tabelle 3 gezeigt. Tabelle 4 zeigt die Elutionszeiten der Komponenten mit dieser Messmethode. Tabelle 3: Profil der HPLC-Methode.

[2] = tested on: UPO #13M1; test: as above; assay type: biochemical; settings: for enzymatischer Abbau von Modell-N-Alkylverbindungen: UPO #13M1: 4 mM substrate, Tricine buffer 100 mM, 30 °C, at least 4 h, H2O2 added every 30 min
Protocol: as §1, §2, §3, §4

[3] = tested on: UPO #13; test: as above; assay type: biochemical; settings: for enzymatischer Abbau von Modell-N-Alkylverbindungen: UPO #13: 4 mM substrate, Tricine buffer 100 mM, 30 °C, at least 4 h, H2O2 added every 30 min
Protocol: as §1, §2, §3, §4

[4] = tested on: UPO #13M3; test: as above; assay type: biochemical; settings: for enzymatischer Abbau von Modell-N-Alkylverbindungen: UPO #13M3: 4 mM substrate, Tricine buffer 100 mM, 30 °C, at least 4 h, H2O2 added every 30 min
Protocol: as §1, §2, §3, §4

[5] = tested on: ChaO YT02; test: Enzymatic N-dealkylation assay MAOs/CAOs, HPLC product release; assay type: biochemical, Acinetobacter sp. YT-02; settings: for enzymatischer Abbau von Modell-N-Alkylverbindungen: ChaO YT02: 10 mM substrate, phosphate buffer pH 7,5, 37 °C, at least 48 h
Protocol: (§5) Die Expression der in Tabelle 1 gezeigten MAOs und CAOs erfolgte im Stamm E. coli BL21(DE3). Der Zellaufschluss erfolgte durch Ultraschallbehandlung und die Enzymreinigung über einen N-terminalen His-tag und das IMAC-System (Nickel-NTA) nach Angaben des Herstellers (Fisher Scientific GmbH) mit anschließender Umpufferung in einen Lagerpuffer (25 mM Tris/HCl pH 7.8, 1 mM dithiothreitol (DTT), 1 mM PMSF, 300 mM NaCl) über PD-10-Säulen nach Angaben des Herstellers (cytiva). Die erfolgreiche Expression und Aufreinigung wurde über ein SDS-PAGE kontrolliert. Tabelle 1: Untersuchte Enzyme im Rahmen der enzymatischen N-Dealkylierung.
(§6) Für MAOs/CAOs erfolgte die Reaktion im 200 µL Maßstab bei 37 °C für mindestens 48 h und 200 rpm. Dazu wurden 100 µL der oben beschriebenen Enzympräparate in Phosphatpuffer (bevorzugt zwischen 50 bis 200 mM, pH 7,5) mit 10 mM eines der sechs in Tabelle 2 gelisteten Substrate versetzt. Als Co-Solvenz für das Substrat wurde Dimethylsulfoxid eingesetzt (maximal 5 % (w/w) der finalen Umsetzungsreaktion). Um eine ausreichende Sauerstoffversorgung über den Kopfraum des Reaktionsansatzes zu gewährleisten, wurden Reaktionsgefäße oder Mikrotiterplatten in eckiger Ausführungsform und 10-fachem Gesamtvolumen bevorzugt.
as §3, §4

[6] = tested on: ChaoA L225A; test: as above; assay type: biochemical, Brevibacterium oxydans strain IH-35A; settings: for enzymatischer Abbau von Modell-N-Alkylverbindungen: ChaoA L225A: 10 mM substrate, phosphate buffer pH 7,5, 37 °C, at least 48 h; for Aktivität / Freisetzung des Zielprodukts: ChaoA L225A
Protocol: as §5, §6, §3, §4

[7] = biological target: T1, MaoN (Aspergillus niger, UniProt P46882); test: as above; assay type: biochemical; settings: 10 mM substrate, phosphate buffer pH 7,5, 37 °C, at least 48 h
T1 construct: His-tag (N); made in house; host or cells: Escherichia coli BL21(DE3) pET21a
T1 sequence (P46882 whole entry): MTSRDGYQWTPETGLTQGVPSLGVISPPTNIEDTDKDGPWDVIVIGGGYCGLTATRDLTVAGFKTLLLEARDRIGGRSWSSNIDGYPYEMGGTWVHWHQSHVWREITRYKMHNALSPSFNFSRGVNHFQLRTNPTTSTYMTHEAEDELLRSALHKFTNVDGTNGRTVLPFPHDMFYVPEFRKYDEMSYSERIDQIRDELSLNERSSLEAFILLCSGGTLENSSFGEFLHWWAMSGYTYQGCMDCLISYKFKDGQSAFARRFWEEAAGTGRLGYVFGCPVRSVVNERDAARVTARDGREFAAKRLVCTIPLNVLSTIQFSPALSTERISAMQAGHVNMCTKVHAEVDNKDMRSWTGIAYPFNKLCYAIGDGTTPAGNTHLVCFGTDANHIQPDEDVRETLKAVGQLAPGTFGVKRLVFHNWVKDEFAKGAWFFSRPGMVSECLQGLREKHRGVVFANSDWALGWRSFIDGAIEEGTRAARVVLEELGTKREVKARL
Protocol: as §5, §6, §3, §4

[8] = biological target: T2, MaoN5 (Aspergillus niger, UniProt P46882, D385S/I246M/N336S/T384N); test: as above; assay type: biochemical; settings: for enzymatischer Abbau von Modell-N-Alkylverbindungen: MaoN5: 10 mM substrate, phosphate buffer pH 7,5, 37 °C, at least 48 h; for Aktivität / Freisetzung des Zielprodukts: MaoN5
T2 construct: His-tag (N); made in house; host or cells: Escherichia coli BL21(DE3) pET21a
T2 sequence (P46882 whole entry I246M/N336S/T384N/D385S): as the sequence (P46882 whole entry) above, with I246M, N336S, T384N, D385S counted along it
Protocol: as §5, §6, §3, §4

[9] = biological target: T3, AaeUPO (Cyclocybe aegerita, UniProt B9W4V6); test: Enzymatic N-dealkylation assay UPOs with H2O2, HPLC; assay type: biochemical, Agrocybe aegerita; settings: for enzymatischer Abbau von Modell-N-Alkylverbindungen: AaeUPO: 4 mM substrate, Tricine buffer 100 mM, 30 °C, at least 4 h, H2O2 added every 30 min
T3 construct: purchased Aminoverse B.V
T3 sequence (B9W4V6 44-371): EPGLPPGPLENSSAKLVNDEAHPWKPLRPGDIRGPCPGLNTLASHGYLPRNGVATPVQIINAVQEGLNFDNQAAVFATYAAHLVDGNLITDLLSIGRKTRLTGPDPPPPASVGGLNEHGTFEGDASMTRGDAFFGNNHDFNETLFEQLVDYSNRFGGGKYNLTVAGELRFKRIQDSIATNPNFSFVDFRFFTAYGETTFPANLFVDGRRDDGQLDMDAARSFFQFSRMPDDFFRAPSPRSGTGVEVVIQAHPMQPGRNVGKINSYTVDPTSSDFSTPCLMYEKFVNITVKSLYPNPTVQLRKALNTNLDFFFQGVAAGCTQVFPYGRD
Protocol: Die vier Enzyme UPO #13, UPO #13M1, UPO #13M3 und UPO #13M5 wurden von Aminoverse B.V. bereitgestellt.
Für UPOs erfolgte die Reaktion im 300 µL Maßstab in Tricine Puffer (100 mM) bei 30 °C für mindestens 4 h und 200 rpm. […] Der Assay wurde mit Zugabe des Co-Substrats H2O2 (1,5 µL einer 200 mM H2O2-Lösung) gestartet, welches alle 30 min wiederholt zugegeben wurde (final 12 µL H2O2).
as §3, §4

[10] = tested on: MAOs/CAOs; test: Enzymatic N-dealkylation assay, statement for the MAOs/CAOs as a group; assay type: biochemical
Protocol: as §5, §6, §3, §4

[11] = UPO #13M5, mol% relative to substrate used
[12] = UPO #13M1, mol% relative to substrate used
[13] = UPO #13, mol% relative to substrate used
[14] = UPO #13M3, mol% relative to substrate used
[15] = AaeUPO, mol% relative to substrate used

| SMILES | enzymatischer Abbau von Modell-N-Alkylverbindungen: UPO #13M5 [1] | 4,4'-MDA-Freisetzung [1, 11] | enzymatischer Abbau von Modell-N-Alkylverbindungen: UPO #13M1 [2] | 4,4'-MDA-Freisetzung [2, 12] | enzymatischer Abbau von Modell-N-Alkylverbindungen: UPO #13 [3] | 4,4'-MDA-Freisetzung [3, 13] | enzymatischer Abbau von Modell-N-Alkylverbindungen: UPO #13M3 [4] | 4,4'-MDA-Freisetzung [4, 14] | enzymatischer Abbau von Modell-N-Alkylverbindungen: ChaO YT02 [5] | enzymatischer Abbau von Modell-N-Alkylverbindungen: ChaoA L225A [6] | Aktivität / Freisetzung des Zielprodukts [6] | enzymatischer Abbau von Modell-N-Alkylverbindungen: MaoN [7] | enzymatischer Abbau von Modell-N-Alkylverbindungen: MaoN5 [8] | Aktivität / Freisetzung des Zielprodukts [8] | enzymatischer Abbau von Modell-N-Alkylverbindungen: AaeUPO [9] | 4,4'-MDA-Freisetzung [9, 15] | Aktivität [10] | further results |
| --- | --- | --- | --- | --- | --- | --- | --- | --- | --- | --- | --- | --- | --- | --- | --- | --- | --- | --- |
| CCNc1ccc(Cc2ccc(NCC)cc2)cc1 [N,N'-Diethyl-4,4'-MDA] | ja/deg^1 | 2,8 mol% | ja/deg^1 | 2,5 mol% | ja/deg^1 | 2,6 mol% | ja/deg^1 | 2,9 mol% | nein | schwach | nur sehr schwache 4,4'-MDA-Freisetzung | nein | schwach | nur sehr schwache 4,4'-MDA-Freisetzung | nein | 0 mol% | – | – |
| CNc1ccc(Cc2ccc(NC)cc2)cc1 [N,N'-Dimethyl-4,4'-MDA] | – | 2,2 mol% | – | 2,5 mol% | – | 2,1 mol% | – | 2,8 mol% | nein | schwach | geringerer Aktivität | nein | schwach | geringerer Aktivität | – | 0,7 mol% | – | Abbau des eingesetzten Substrates ([1]; UPO #13M5, substrate no longer detected in HPLC chromatograms): vollständig abgebaut; Abbau des eingesetzten Substrates ([3]; UPO #13, substrate no longer detected in HPLC chromatograms): vollständig abgebaut; Abbau des eingesetzten Substrates ([4]; UPO #13M3, substrate no longer detected in HPLC chromatograms): vollständig abgebaut |
| CN(C)c1ccc(Cc2ccc(N(C)C)cc2)cc1 [N,N,N',N'-Tetramethyl-4,4'-MDA, N,N,N',N'-Tetramethyl-4,4'-diaminodiphenylmethan] | – | 1,3 mol% | – | 1,1 mol% | – | 1,1 mol% | – | 1,4 mol% | nein | nein | – | nein | nein | – | nein | 0,1 mol% | keine reproduzierbare Aktivität | N,N'-Dimethyl-4,4'-MDA - Zwischenprodukt der enzymatischen Reaktion - nachgewiesen [1, 11]: 27,9 mol%; N,N'-Dimethyl-4,4'-MDA - Zwischenprodukt der enzymatischen Reaktion - nachgewiesen [2, 12]: 31,8 mol%; N,N'-Dimethyl-4,4'-MDA - Zwischenprodukt der enzymatischen Reaktion - nachgewiesen [3, 13]: 25,7 mol%; N,N'-Dimethyl-4,4'-MDA - Zwischenprodukt der enzymatischen Reaktion - nachgewiesen [4, 14]: 27,5 mol%; N,N'-Dimethyl-4,4'-MDA - Zwischenprodukt der enzymatischen Reaktion - nachgewiesen [9, 15]: 0 mol% |
| c1ccc(CNc2ccccc2)cc1 [N-Benzylanilin] | deg | – | deg | – | deg | – | deg | – | schwach | schwach | spezifische Aktivität | nein | nein | – | deg | – | – | Aktivität / Freisetzung des Zielprodukts ([5]; ChaO YT02): spezifische Aktivität |
| CCN(C)c1ccccc1 [N-Ethyl-N-Methylanilin] | nein | – | – | – | – | – | – | – | nein | nein | – | nein | nein | – | nein | – | keine Aktivität | Anilin als Zielprodukt ([2]; UPO #13M1): nachgewiesen; Anilin als Zielprodukt ([3]; UPO #13): nachgewiesen; Anilin als Zielprodukt ([4]; UPO #13M3): nachgewiesen |
| CCNc1ccccc1 [N-Ethylanilin] | deg | – | deg | – | deg | – | deg | – | schwach | – | – | – | schwach | – | deg | – | spezifische Aktivität | – |
